Legend:
[1] = biological target: T1, CDK2/cyclin A (Homo sapiens, UniProt P24941); assay: CDK protein inhibition, KINOMEscan (Eurofins), CDK2/cyclin A; format: binding; settings: 1 μM
T1 construct: purchased Eurofins Scientific

[2] = biological target: T2, CDK2 (Homo sapiens, UniProt P24941); assay: CDK protein degradation activity (Western blotting), CDK2; format: cell-based; settings: MDA-MB-231 cells, 16 hours, Western blot
T2 construct: endogenous in cells; host or cells: MDA-MB-231
Summary of the method: (§1)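 Protein levels were read by Western blot densitometry, tubulin serving as loading reference. Beforehand, MDA-MB-231 cells had been exposed for 16 hours to 100 nM, 1 μM or 10 μM compound, DMSO as control.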

[3] = biological target: T3, CDK9 (Homo sapiens, UniProt P50750); assay: CDK protein degradation activity (Western blotting), CDK9; format: cell-based; settings: MDA-MB-231 cells, 16 hours, Western blot
T3 construct: endogenous in cells; host or cells: MDA-MB-231
Summary of the method: as §1

T3 sequence (P50750 whole entry): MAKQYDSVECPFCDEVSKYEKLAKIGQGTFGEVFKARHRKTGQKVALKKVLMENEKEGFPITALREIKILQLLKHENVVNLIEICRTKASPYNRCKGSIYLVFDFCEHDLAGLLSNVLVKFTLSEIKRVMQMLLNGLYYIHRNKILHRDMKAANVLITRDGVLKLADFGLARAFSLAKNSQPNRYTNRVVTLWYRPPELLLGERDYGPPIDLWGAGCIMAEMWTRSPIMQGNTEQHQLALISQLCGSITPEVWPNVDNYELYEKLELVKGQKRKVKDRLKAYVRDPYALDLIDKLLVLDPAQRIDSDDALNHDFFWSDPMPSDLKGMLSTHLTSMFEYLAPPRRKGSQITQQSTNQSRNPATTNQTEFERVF

Compound | CDK2/cyclin A inhibition (%) (at concentration of 1 μM) [1] | Enzyme degradation CDK2 (% remaining) @ 0.1 μM [2] | Enzyme degradation CDK2 (% remaining) @ 1 μM [2] | Enzyme degradation CDK2 (% remaining) @ 10 μM [2] | Enzyme degradation CDK9 (% remaining) @ 0.1 μM [3] | Enzyme degradation CDK9 (% remaining) @ 1 μM [3] | Enzyme degradation CDK9 (% remaining) @ 10 μM [3]
Cc1cccc(C(=O)NC2CC(n3cnc4c(NCC5CCN(C(=O)CCCCCNc6cccc7c6C(=O)N([C@@H]6CCC(=O)NC6=O)C7=O)CC5)ncnc43)C2)n1 (stereo partly shown) [Compound 66, N-((1r,3r)-3-(6-(((1-(6-((2-(2,6-dioxopiperidin-3-yl)-1,3-dioxoisoindolin-4-yl)amino)hexanoyl)piperidin-4-yl)methyl)amino)-9H-purin-9-yl)cyclobutyl)-6-methylpicolinamide] | 78% |  |  |  |  |  | 
O=C1CCC(N2C(=O)c3cccc(NCC(=O)N4CC(N5CCC6(CC5)CC(N5CCN(c7ccc(Nc8ncnc9c8ncn9[C@H]8C[C@@H](NC(=O)Cc9ccccc9)C8)cc7)CC5)C6)C4)c3C2=O)C(=O)N1 (stereo partly shown) [Compound 277, N-((1s,3s)-3-(6-((4-(4-(7-(1-((2-(2,6-dioxopiperidin-3-yl)-1,3-dioxoisoindolin-4-yl)glycyl)azetidin-3-yl)-7-azaspiro[3.5]nonan-2-yl)piperazin-1-yl)phenyl)amino)-9H-purin-9-yl)cyclobutyl)-2-phenylacetamide] |  | 30/30/30% | 30/30/30% | 30/30/30% | 0/0/0% | 0/0/0% | 0/0/0%
O=C1CC[C@H](N2C(=O)c3ccc(OCC(=O)N4CCC(CN5CCC(c6ccc(Nc7ncnc8c7ncn8C7CC(NC(=O)Cc8ccccc8)C7)cc6)CC5)CC4)cc3C2=O)C(=O)N1 (stereo partly shown) [Compound 289, N-((1s,3s)-3-(6-((4-(1-((1-(2-((2-(2,6-dioxopiperidin-3-yl)-1,3-dioxoisoindolin-5-yl)oxy)acetyl)piperidin-4-yl)methyl)piperidin-4-yl)phenyl)amino)-9H-purin-9-yl)cyclobutyl)-2-phenylacetamide] |  | 40% | 60% | 70% | 30% | 0% | 0%
O=C1CC[C@H](N2C(=O)c3cccc(NCC(=O)N4CCN(CC5CCN(c6ccc(Nc7ncnc8c7ncn8[C@H]7C[C@@H](NC(=O)Cc8ccccc8)C7)cc6)CC5)CC4)c3C2=O)C(=O)N1 [Compound 322, N-((1s,3s)-3-(6-((4-(4-((4-((2-(2,6-dioxopiperidin-3-yl)-1,3-dioxoisoindolin-4-yl)glycyl)piperazin-1-yl)methyl)piperidin-1-yl)phenyl)amino)-9H-purin-9-yl)cyclobutyl)-2-phenylacetamide] |  | 20% | 10% | 20% | 20% | 10% | 20%
O=C1CC[C@H](N2C(=O)c3cccc(OCC(=O)N4CCC(CN5CCN(c6ccc(Nc7ncnc8c7ncn8[C@H]7C[C@@H](NC(=O)c8c(Cl)cccc8Cl)C7)cc6)CC5)CC4)c3C2=O)C(=O)N1 [Compound 163, 2,6-dichloro-N-((1s,3s)-3-(6-((4-(4-((1-(2-((2-(2,6-dioxopiperidin-3-yl)-1,3-dioxoisoindolin-4-yl)oxy)acetyl)piperidin-4-yl)methyl)piperazin-1-yl)phenyl)amino)-9H-purin-9-yl)cyclobutyl)benzamide] |  | 20% | 10% | 10% | 0/0/0% | 0/0/0% | 0/0/0%
O=C1CC[C@H](N2C(=O)c3cccc(NCC(=O)N4CCC(CN5CCC(CNc6ncnc7c6ncn7[C@H]6C[C@@H](NC(=O)c7c(Cl)cccc7Cl)C6)CC5)CC4)c3C2=O)C(=O)N1 [Compound 170, 2,6-dichloro-N-((1s,3s)-3-(6-(((1-((1-((2-(2,6-dioxopiperidin-3-yl)-1,3-dioxoisoindolin-4-yl)glycyl)piperidin-4-yl)methyl)piperidin-4-yl)methyl)amino)-9H-purin-9-yl)cyclobutyl)benzamide] |  | 0% | 10% | 20% | 10% | 0% | 10%
O=C1CC[C@H](N2C(=O)C=C(N3CCC(C(=O)N4CCC(CC(=O)N5CCN(c6ccc(Nc7ncnc8c7ncn8[C@H]7C[C@@H](NC(=O)Cc8ccccc8)C7)cc6)CC5)CC4)CC3)C2=O)C(=O)N1 [Compound 197, N-((1s,3s)-3-(6-((4-(4-(2-(1-(1-(1-(2,6-dioxopiperidin-3-yl)-2,5-dioxo-2,5-dihydro-1H-pyrrol-3-yl)piperidin-4-carbonyl)piperidin-4-yl)acetyl)piperazin-1-yl)phenyl)amino)-9H-purin-9-yl)cyclobutyl)-2-phenylacetamide] |  | 30/30/30% | 30/30/30% | 30/30/30% | 10% | 10% | 0%
Cc1cccc(C(=O)NC2CC(n3cnc4c(NCCCN5CCN(CC6CCN(C(=O)COc7ccc([C@@H]8CCC(=O)NC8=O)cc7)CC6)CC5)ncnc43)C2)n1 (stereo partly shown) [Compound 229, N-((1s,3s)-3-(6-((3-(4-((1-(2-(4-(2,6-dioxopiperidin-3-yl)phenoxy)acetyl)piperidin-4-yl)methyl)piperazin-1-yl)propyl)amino)-9H-purin-9-yl)cyclobutyl)-6-methylpicolinamide] |  | 70% | 90% | 100% | 20% | 10% | 0%
Cc1cccc(C(=O)N[C@H]2C[C@@H](n3cnc4c(Nc5ccc(N6CCN(CC7CCN(C(=O)C8CN(c9ccc%10c(c9)C(=O)N([C@H]9CCC(=O)NC9=O)C%10=O)C8)CC7)CC6)cc5)ncnc43)C2)n1 [Compound 401, N-((1s,3s)-3-(6-((4-(4-((1-(1-(2-(2,6-dioxopiperidin-3-yl)-1,3-dioxoisoindolin-5-yl)azetidin-3-carbonyl)piperidin-4-yl)methyl)piperazin-1-yl)phenyl)amino)-9H-purin-9-yl)cyclobutyl)-6-methylpicolinamide] |  | 30% | 20% | 20% | 0/0/0% | 0/0/0% | 0/0/0%
Cc1cccc(C(=O)NC2CC(n3cnc4c(NCc5ccc(N6CCN(CC7CCN(C(=O)CNc8cccc9c8C(=O)N([C@H]8CCC(=O)NC8=O)C9=O)CC7)CC6)cc5)ncnc43)C2)n1 (stereo partly shown) [Compound 152, N-((1s,3s)-3-(6-((4-(4-((1-((2-(2,6-dioxopiperidin-3-yl)-1,3-dioxoisoindolin-4-yl)glycyl)piperidin-4-yl)methyl)piperazin-1-yl)benzyl)amino)-9H-purin-9-yl)cyclobutyl)-6-methylpicolinamide] |  | 10/10/10% | 10/10/10% | 10/10/10% | 0/0/0% | 0/0/0% | 0/0/0%
O=C1CC[C@H](N2C(=O)c3cccc(N4CCC(CN5CCN(c6ccc(Nc7ncnc8c7ncn8[C@H]7C[C@@H](NC(=O)c8c(Cl)cccc8Cl)C7)cc6)CC5)CC4)c3C2=O)C(=O)N1 [Compound 167, 2,6-dichloro-N-((1s,3s)-3-(6-((4-(4-((1-(2-(2,6-dioxopiperidin-3-yl)-1,3-dioxoisoindolin-4-yl)piperidin-4-yl)methyl)piperazin-1-yl)phenyl)amino)-9H-purin-9-yl)cyclobutyl)benzamide] |  | 30% | 40% | 30% | 0/0/0% | 0/0/0% | 0/0/0%
CC(=O)NC1CC(n2cnc3c(NCC4CCN(CC5CCN(C(=O)COc6cccc7c6C(=O)N([C@H]6CCC(=O)NC6=O)C7=O)CC5)CC4)ncnc32)C1 (stereo partly shown) [Compound 155, N-((1s,3s)-3-(6-(((1-((1-(2-((2-(2,6-dioxopiperidin-3-yl)-1,3-dioxoisoindolin-4-yl)oxy)acetyl)piperidin-4-yl)methyl)piperidin-4-yl)methyl)amino)-9H-purin-9-yl)cyclobutyl)acetamide] |  | 100% | 80% | 10% | 90% | 40% | 0%
Cc1cccc(C(=O)N[C@H]2C[C@@H](n3cnc4c(NCc5cccc(OCC6CCN(C(=O)COc7ccc8c(c7)C(=O)N([C@H]7CCC(=O)NC7=O)C8=O)CC6)c5)ncnc43)C2)n1 [Compound 94, N-((1s,3s)-3-(6-((3-((1-(2-((2-(2,6-dioxopiperidin-3-yl)-1,3-dioxoisoindolin-5-yl)oxy)acetyl)piperidin-4-yl)methoxy)benzyl)amino)-9H-purin-9-yl)cyclobutyl)-6-methylpicolinamide] |  | 80% | 60% | 90% | 50% | 10% | 20%

— patent publication US20260125382A1, “COMPOUNDS FOR INHIBITING OR DEGRADING CDK2 AND/OR CDK9 AND MEDICINAL USE THEREOF” (KOREA RESEARCH INSTITUTE OF CHEMICAL TECHNOLOGY, priority 2022, published 2026)
